Experimental data from ChEMBL document CHEMBL4507268 (2021).

Experiments:
[1] = target: Muscarinic acetylcholine receptor M4 (Homo sapiens) (UniProt P08173); conditions: Compound concentration 10.0 uM
[2] = target: D(1A) dopamine receptor (Homo sapiens) (UniProt P21728); conditions: Compound concentration 10.0 uM
[3] = target: T1, Tyrosine-protein kinase Tec (Homo sapiens) (UniProt P42680); conditions: Compound concentration 1.0 uM
T1 sequence (whole entry): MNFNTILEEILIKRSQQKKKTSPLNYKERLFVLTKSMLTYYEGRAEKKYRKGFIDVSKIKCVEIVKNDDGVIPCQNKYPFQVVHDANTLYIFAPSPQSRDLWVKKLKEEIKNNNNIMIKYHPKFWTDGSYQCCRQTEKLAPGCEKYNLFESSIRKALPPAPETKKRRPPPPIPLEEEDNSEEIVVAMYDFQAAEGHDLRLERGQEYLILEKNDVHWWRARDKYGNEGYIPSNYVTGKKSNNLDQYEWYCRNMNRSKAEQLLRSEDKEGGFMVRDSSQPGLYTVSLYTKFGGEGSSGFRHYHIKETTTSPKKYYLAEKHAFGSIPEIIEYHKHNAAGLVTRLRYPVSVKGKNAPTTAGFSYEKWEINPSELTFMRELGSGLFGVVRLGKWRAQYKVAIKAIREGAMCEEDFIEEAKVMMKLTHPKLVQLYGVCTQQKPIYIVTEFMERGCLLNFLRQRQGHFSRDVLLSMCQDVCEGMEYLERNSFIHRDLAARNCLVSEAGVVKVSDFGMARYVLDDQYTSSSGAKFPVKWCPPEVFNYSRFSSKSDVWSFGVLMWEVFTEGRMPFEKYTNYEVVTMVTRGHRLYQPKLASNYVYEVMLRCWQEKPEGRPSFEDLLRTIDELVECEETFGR

[4] = target: Serine/threonine-protein kinase SIK3 (Homo sapiens) (UniProt Q9Y2K2); conditions: Compound concentration 1.0 uM
[5] = target: Glycogen synthase kinase-3 beta (Homo sapiens) (UniProt P49841); conditions: Compound concentration 1.0 uM
[6] = target: Testis-specific serine/threonine-protein kinase 2 (Homo sapiens) (UniProt Q96PF2); conditions: Compound concentration 1.0 uM
[7] = target: Serine/threonine-protein kinase Nek7 (Homo sapiens) (UniProt Q8TDX7); conditions: Compound concentration 1.0 uM
[8] = target: Ribosomal protein S6 kinase alpha-6 (Homo sapiens) (UniProt Q9UK32); conditions: Compound concentration 1.0 uM
[9] = target: T2, MAP/microtubule affinity-regulating kinase 4 (Homo sapiens) (UniProt Q96L34); conditions: Compound concentration 1.0 uM
T2 sequence (whole entry): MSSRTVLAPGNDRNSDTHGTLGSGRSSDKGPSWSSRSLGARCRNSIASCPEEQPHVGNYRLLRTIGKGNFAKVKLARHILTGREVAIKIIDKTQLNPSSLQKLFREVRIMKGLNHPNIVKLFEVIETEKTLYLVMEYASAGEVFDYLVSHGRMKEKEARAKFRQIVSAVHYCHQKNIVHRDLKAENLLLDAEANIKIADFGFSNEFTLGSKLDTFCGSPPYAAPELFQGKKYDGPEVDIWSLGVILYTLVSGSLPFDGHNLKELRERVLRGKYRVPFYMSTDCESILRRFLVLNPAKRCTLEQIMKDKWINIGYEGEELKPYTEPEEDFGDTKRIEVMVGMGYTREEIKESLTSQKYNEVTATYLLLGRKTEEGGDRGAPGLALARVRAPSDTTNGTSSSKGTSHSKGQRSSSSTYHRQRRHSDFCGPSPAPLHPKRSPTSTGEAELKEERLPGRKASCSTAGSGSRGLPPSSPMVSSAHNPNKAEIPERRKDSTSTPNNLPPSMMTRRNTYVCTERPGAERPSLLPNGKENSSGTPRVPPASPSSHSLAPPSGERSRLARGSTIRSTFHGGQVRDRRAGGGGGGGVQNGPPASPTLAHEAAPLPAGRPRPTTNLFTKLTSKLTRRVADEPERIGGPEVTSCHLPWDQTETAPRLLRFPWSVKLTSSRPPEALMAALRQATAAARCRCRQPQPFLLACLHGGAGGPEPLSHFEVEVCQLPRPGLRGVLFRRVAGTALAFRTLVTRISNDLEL

[10] = target: [Pyruvate dehydrogenase (acetyl-transferring)] kinase isozyme 4, mitochondrial (Homo sapiens) (UniProt Q16654); conditions: Compound concentration 1.0 uM
[11] = target: Interferon-induced, double-stranded RNA-activated protein kinase (Homo sapiens) (UniProt P19525); conditions: Compound concentration 1.0 uM
[12] = target: Tyrosine-protein kinase Lck (Homo sapiens) (UniProt P06239); conditions: Compound concentration 1.0 uM
[13] = target: Calcium/calmodulin-dependent protein kinase type II subunit beta (Homo sapiens) (UniProt Q13554); conditions: Compound concentration 1.0 uM
[14] = target: Tau-tubulin kinase 2 (Homo sapiens) (UniProt Q6IQ55); conditions: Compound concentration 1.0 uM
[15] = target: Casein kinase I isoform gamma-2 (Homo sapiens) (UniProt P78368); conditions: Compound concentration 1.0 uM
[16] = target: Serine/threonine-protein kinase PAK 2 (Homo sapiens) (UniProt Q13177); conditions: Compound concentration 1.0 uM
[17] = target: Tyrosine-protein kinase Lck (Homo sapiens) (UniProt P06239); conditions: Compound concentration 1.0 uM; remark: listed apart in the source
[18] = target: Serine/threonine-protein kinase SIK1 (Homo sapiens) (UniProt P57059); conditions: Compound concentration 1.0 uM

Tyrosine-protein kinase Lck (Homo sapiens), sequence (P06239 2-509 limits assumed): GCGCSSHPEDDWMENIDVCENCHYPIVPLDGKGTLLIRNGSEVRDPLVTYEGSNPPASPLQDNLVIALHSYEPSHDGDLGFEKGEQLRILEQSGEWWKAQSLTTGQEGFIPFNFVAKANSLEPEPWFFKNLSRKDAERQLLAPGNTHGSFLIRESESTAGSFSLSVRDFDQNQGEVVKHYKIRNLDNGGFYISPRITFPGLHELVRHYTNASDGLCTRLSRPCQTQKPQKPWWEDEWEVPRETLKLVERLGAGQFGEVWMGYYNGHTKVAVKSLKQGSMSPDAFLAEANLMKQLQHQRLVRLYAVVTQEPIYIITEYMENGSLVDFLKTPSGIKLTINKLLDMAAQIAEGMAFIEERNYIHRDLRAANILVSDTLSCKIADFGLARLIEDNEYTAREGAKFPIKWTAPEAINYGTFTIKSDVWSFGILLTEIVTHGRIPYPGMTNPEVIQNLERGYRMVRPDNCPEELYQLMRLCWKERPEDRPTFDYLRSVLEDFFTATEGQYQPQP
Casein kinase I isoform gamma-2 (Homo sapiens), sequence (P78368 whole entry, looked up, canonical isoform): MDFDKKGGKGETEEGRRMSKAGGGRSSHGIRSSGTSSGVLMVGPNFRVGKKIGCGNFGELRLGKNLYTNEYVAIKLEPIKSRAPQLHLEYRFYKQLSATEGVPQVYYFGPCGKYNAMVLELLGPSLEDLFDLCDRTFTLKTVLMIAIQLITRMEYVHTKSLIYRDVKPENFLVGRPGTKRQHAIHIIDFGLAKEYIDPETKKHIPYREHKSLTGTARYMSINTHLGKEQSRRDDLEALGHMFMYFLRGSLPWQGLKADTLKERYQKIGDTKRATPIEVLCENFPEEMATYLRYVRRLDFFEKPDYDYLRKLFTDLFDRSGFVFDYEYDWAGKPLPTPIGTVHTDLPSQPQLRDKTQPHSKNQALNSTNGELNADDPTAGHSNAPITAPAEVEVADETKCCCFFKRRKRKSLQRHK
Serine/threonine-protein kinase SIK3 (Homo sapiens), sequence (Q9Y2K2 whole entry, looked up): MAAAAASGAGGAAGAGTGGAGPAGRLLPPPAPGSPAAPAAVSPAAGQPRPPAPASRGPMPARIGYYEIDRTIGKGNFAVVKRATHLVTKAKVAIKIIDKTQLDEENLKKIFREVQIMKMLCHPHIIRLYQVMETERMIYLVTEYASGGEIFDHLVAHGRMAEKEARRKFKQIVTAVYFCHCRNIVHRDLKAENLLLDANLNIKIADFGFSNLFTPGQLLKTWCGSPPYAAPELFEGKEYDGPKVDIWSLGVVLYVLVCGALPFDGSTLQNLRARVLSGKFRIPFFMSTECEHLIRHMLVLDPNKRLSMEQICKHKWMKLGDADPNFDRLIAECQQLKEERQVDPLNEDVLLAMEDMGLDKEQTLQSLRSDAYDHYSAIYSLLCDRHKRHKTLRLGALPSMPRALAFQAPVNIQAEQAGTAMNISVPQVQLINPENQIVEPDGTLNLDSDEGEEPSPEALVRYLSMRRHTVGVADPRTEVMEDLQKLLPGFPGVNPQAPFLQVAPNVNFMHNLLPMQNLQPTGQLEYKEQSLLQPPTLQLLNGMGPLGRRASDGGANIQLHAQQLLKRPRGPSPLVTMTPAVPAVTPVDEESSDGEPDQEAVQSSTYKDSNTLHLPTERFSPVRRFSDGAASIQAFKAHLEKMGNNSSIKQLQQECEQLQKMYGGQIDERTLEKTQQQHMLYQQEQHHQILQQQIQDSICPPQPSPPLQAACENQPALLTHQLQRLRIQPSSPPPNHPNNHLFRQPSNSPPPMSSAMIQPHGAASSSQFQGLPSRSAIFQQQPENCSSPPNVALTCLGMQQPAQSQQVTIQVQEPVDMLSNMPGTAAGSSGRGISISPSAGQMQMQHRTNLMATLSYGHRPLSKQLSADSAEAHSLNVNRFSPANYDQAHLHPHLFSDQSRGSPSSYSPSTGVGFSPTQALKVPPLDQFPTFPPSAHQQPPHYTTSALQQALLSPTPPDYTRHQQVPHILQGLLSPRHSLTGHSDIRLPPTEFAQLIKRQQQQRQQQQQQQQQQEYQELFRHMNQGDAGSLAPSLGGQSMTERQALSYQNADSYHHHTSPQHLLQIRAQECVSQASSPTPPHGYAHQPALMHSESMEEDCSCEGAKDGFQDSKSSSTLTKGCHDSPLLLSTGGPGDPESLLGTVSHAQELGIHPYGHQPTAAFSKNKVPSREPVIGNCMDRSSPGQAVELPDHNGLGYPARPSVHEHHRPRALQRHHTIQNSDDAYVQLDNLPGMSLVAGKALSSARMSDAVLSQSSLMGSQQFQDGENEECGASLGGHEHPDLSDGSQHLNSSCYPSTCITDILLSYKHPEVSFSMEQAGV
Interferon-induced, double-stranded RNA-activated protein kinase (Homo sapiens), sequence (P19525 whole entry): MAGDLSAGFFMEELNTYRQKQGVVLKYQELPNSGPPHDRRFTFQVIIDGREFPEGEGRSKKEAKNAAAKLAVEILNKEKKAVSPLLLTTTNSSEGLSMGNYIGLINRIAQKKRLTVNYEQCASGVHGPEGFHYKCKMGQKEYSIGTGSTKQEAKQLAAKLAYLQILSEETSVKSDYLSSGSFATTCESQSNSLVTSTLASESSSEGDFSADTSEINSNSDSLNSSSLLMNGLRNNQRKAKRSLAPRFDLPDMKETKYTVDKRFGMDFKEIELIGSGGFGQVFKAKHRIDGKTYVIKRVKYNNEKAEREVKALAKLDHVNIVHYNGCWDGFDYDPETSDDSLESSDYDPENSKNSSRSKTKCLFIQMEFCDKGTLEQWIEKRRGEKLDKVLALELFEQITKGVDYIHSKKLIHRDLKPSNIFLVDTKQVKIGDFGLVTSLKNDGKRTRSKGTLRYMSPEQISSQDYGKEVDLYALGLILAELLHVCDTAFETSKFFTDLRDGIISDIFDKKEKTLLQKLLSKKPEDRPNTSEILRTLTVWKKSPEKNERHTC
Serine/threonine-protein kinase Nek7 (Homo sapiens), sequence (Q8TDX7 whole entry, looked up): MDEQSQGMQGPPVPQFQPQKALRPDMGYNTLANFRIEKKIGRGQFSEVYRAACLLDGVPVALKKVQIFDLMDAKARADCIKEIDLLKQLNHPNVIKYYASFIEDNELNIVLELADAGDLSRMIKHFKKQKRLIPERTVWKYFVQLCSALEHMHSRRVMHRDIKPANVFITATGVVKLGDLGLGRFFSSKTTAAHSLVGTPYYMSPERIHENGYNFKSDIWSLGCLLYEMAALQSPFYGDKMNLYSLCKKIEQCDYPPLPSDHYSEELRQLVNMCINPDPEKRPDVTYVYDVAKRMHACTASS
Muscarinic acetylcholine receptor M4 (Homo sapiens), sequence (P08173 whole entry): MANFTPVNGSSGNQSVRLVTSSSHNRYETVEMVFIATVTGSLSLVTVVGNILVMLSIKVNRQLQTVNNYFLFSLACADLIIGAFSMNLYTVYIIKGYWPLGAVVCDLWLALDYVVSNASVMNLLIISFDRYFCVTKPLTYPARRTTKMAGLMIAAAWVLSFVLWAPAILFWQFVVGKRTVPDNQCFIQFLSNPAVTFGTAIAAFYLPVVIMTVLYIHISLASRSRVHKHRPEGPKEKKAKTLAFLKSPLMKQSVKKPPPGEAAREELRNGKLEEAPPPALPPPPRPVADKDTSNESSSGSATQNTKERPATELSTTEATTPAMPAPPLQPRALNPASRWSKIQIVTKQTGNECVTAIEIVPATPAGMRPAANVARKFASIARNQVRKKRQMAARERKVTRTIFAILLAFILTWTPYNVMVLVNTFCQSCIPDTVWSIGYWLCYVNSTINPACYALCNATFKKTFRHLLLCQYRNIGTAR
Serine/threonine-protein kinase PAK 2 (Homo sapiens), sequence (Q13177 whole entry): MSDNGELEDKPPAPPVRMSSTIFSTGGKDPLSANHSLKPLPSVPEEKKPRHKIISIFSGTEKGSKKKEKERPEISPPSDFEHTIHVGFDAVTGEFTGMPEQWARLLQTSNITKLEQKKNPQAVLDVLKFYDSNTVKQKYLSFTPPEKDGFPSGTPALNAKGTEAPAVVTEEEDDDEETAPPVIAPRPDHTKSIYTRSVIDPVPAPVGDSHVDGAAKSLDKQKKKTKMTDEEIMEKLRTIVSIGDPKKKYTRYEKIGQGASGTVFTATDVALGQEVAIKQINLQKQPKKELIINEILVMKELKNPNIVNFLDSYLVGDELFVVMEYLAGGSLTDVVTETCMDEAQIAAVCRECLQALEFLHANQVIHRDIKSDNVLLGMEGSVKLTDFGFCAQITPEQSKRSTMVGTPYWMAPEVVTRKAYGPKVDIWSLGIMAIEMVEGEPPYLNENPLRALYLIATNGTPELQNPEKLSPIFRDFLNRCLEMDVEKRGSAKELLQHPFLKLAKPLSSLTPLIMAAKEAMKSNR
Calcium/calmodulin-dependent protein kinase type II subunit beta (Homo sapiens), sequence (Q13554 whole entry): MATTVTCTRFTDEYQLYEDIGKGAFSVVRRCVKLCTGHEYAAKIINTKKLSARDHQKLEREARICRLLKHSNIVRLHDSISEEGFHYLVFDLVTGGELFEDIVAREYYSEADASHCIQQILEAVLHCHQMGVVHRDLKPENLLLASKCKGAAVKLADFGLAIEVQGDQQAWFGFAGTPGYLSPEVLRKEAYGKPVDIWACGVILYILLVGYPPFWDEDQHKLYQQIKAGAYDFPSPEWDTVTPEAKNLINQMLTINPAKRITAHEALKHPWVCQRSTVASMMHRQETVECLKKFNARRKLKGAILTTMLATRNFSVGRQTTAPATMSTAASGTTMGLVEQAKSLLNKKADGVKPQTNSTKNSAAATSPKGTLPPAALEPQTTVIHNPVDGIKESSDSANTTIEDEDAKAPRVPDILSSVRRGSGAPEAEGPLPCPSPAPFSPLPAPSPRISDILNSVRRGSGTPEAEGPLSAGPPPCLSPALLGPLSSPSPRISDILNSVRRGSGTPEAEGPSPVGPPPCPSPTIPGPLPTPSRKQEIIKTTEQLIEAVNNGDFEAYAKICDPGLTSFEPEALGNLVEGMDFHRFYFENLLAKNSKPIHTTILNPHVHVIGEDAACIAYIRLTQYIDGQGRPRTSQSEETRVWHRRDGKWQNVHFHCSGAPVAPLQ

Cc1nc(C2CCN(C(=O)c3ccc(OC(F)(F)F)cc3N)CC2)c2ncc(N3CCN(C)CC3)cc2n1 [BAY-693]
inactive: inhibition [1] -2.04% | inhibition [2] 2.66%

CN1CCN(c2cnc3c(C4CCN(C(=O)c5ccc(OC(F)(F)F)cc5N)CC4)ncnc3c2)CC1 [BAY-885]
inactive: % residual kinase activity [3] 112% | % residual kinase activity [4] 96% | % residual kinase activity [5] 99% | % residual kinase activity [6] 113% | % residual kinase activity [7] 106% | % residual kinase activity [8] 103% | % residual kinase activity [9] 100% | % residual kinase activity [10] 104% | % residual kinase activity [11] 115% | % residual kinase activity [12] 105% | % residual kinase activity [13] 103% | % residual kinase activity [14] 98% | % residual kinase activity [15] 91% | % residual kinase activity [16] 108% | % residual kinase activity [17] 98% | % residual kinase activity [18] 99%
